Results: patent US6825326B2, “PSCA: prostate stem cell antigen and uses thereof” (The Regents of the University of California, priority 1997, dated 2004)

Tests used:
[1] = LD50 experiment to determine the maximum tolerable dose; type: in vivo, mice
Method: An LD50 experiment was performed to determine the maximum tolerable dose of doxorubicin. Doxorubicin (Sigma) and was resuspended in sterile PBS. Doxorubicin was administered by intraperitoneal injection, at the following doses: 50 μg, 25 μg, 12.5 μg, and 6.75 μg. […] At the lower dose ranges, the mice survived for more than 4 weeks. The maximal tolerable dose was 25 μg.

[2] = system: PC3-PSCA tumors; experiment: Established subcutaneous PC3-PSCA tumors; conditions: day 43; 1G8 1 mg 3×/week 3 weeks; doxorubicin 25 μg once weekly 3 weeks
Method: PC3-PSCA cells were derived by retroviral gene transfer. […] Amphotropic retrovirus was generated by co-transfection of 293T cells with pSR-α containing PSCA and a retroviral helper plasmid containing the amphotropic envelope protein. PC3 cells were subsequently infected with the PSCA containing amphotropic retrovirus, and 48 hours after infection the cells were selected by growth in medium containing the neomycin analogue G418. After 2-3 weeks of selection and expansion, a Western blot was performed to confirm that the PC3-PSCA cells express PSCA protein.
PC3-PSCA cells were grown in T-150 flasks in DMEM+10% FBS prior to the injections. The cells were grown to log phase, harvested, washed, counted, then mixed with Matrigel at a 1:1 dilution, and kept on ice. For injection, male IcR-SCID mice were shaved on their flanks, and each mouse received a single subcutaneous injection of about 1×10^6 cells in a volume of 100 μl on the right flank. The growth of PC3-PSCA tumors was followed by caliper measurements of the growing tumors. The mice were selected for treatment when the tumor reached the size of 100-200 mm^3, at approximately 9 days after the subcutaneous injection. The tumor size was measured at days +9, +15, +23, +29, +36, and +43 post injection.
The mice treated with 1G8, were administered 1 mg of 1G8, three times per week for three consecutive weeks. […]

Structure (SMILES): COc1cccc2c1C(=O)c1c(O)c3c(c(O)c1C2=O)C[C@@](O)(C(=O)CO)C[C@@H]3O[C@H]1C[C@H](N)[C@H](O)[C@H](C)O1 [doxorubicin]
- survival at the lower dose ranges ([1]; 25 μg, 12.5 μg, 6.75 μg intraperitoneal): more than 4 weeks
- mortality at the highest dose ([1]; 50 μg intraperitoneal): all the mice died within 2 weeks
- maximal tolerable dose ([1]; intraperitoneal injection): 25 µg
- growth inhibition compared to PBS [2]: 4%
